Where only a bound is given, the exact number is not on record here.

The nature of assay [1]: (§1) Antimicrobial activity against Salmonella enterica serotype Virchow isolate AM23818 expressing rmtC rRNA methyltransferase gene by broth microdilution method. It counts as functional, Salmonella enterica subsp. enterica serovar Virchow. Background: Broth dilution looks for growth in wells or tubes with falling amounts of substance.
Assay [2] is described as follows: (§2) Antimicrobial activity against Salmonella enterica serotype Stanley isolate AM04864 expressing armA rRNA methyltransferase gene by broth microdilution method. It counts as functional, Salmonella enterica subsp. enterica serovar Stanley.
Assay [3] relates to Salmonella enterica subsp. enterica serovar Virchow. The assay is described as §1. It is filed as functional.
Assay [4] deals with Salmonella enterica subsp. enterica serovar Stanley. The assay is described as §2. It counts as functional.

For `NCC[C@H](O)C(=O)N[C@@H]1C[C@H](N)[C@@H](O[C@H]2O[C@H](CN)[C@@H](O)[C@H](O)[C@H]2O)[C@H](O)[C@H]1O[C@H]1O[C@H](CO)[C@@H](O)[C@H](N)[C@H]1O` [AMIKACIN], the MIC in assay [1] and in assay [2] was > 64 µg/mL in each case.

Take `NC[C@H]1O[C@H](O[C@H]2[C@H](O)[C@@H](O[C@H]3O[C@H](CO)[C@@H](O)[C@H](N)[C@H]3O)[C@H](N)C[C@@H]2N)[C@H](O)[C@@H](O)[C@@H]1O` [KANAMYCIN]: the minimum inhibitory concentration (MIC) in assay [1] and in assay [2] was > 64 µg/mL throughout.

On to GENTAMICIN, for which the MIC in assay [3] and in assay [4] was > 16 µg/mL in each case.
